The values that follow come from patent publication US7592358B2 (Boehringer Ingelheim International GmbH, priority 2004, dated 2009).

For this experiment, the target named is T1, hMCH-1R (Homo sapiens, UniProt Q99705).
T1 construct: expressed in transfected cells; host or cells: CHO/Galpha16 cells
Nature of the experiment: MCH-1 receptor binding test. As to conditions: ^125I-MCH binding to membranes from CHO/Galpha16 cells stably transfected with human hMCH-1R. As to the method: Membranes from CHO/Galpha16 cells stably transfected with human hMCH-1R are resuspended using a syringe (needle 0.6×25 mm) and diluted in test buffer (50 mM HEPES, 10 mM MgCl2, 2 mM EGTA, pH 7.00; 0.1% bovine serum albumin (protease-free), 0.021% bacitracin, 1 μg/mL aprotinin, 1 μg/mL leupeptin and 1 μM phosphoramidone) to a concentration of 5 to 15 μg/mL. […] After the incubation the reaction is filtered using a cell harvester through 0.5% PEI treated fiberglass filters (GF/B, Unifilter Packard). The membrane-bound radioactivity retained on the filter is then determined after the addition of scintillator substance (Packard Microscint 20) in a measuring device (TopCount of Packard). […] The analysis of the concentration binding curve is carried out on the assumption of one receptor binding site.

T1 sequence (Q99705 whole entry): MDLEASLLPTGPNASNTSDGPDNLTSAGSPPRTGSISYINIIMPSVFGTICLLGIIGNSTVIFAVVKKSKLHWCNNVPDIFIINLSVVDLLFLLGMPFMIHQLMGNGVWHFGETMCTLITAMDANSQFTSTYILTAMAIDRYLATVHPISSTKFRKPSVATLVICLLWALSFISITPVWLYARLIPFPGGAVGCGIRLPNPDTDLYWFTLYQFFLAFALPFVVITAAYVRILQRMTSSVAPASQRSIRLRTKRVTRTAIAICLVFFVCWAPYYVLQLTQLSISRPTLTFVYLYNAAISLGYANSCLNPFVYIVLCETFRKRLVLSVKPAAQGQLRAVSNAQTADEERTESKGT

Usually IC50 stands for the midpoint of a concentration-inhibition curve. Regarding `Cc1cc(C#Cc2ccc(-c3ccc(Cl)cc3)cn2)ccc1OCCN(C1CCCCC1)C1CCCC1` [Example 1.9, (2-{4-[5-(4-chlorophenyl)pyridin-2-ylethynyl]-2-methylphenoxy}ethyl)cyclohexylcyclopentylamine], the IC50 is 0.0062 µM.
The value for `CC1(O)CCN(Cc2cc3cc(C#Cc4ccc(-c5ccc(Cl)cc5)cn4)ccc3s2)CC1` [Example 22.3, 1-{5-[5-(4-chlorophenyl)pyridin-2-ylethynyl]benzo[b]thiophen-2-ylmethyl}-4-methylpiperidin-4-ol] was 0.031 µM.
